According to patent US20220218738A1, “POTASSIUM-BINDING AGENTS FOR USE IN HEMODIALYSIS PATIENTS” (AstraZeneca AB, priority 2019, published 2022):

System: hyperkalemia in patients on hemodialysis
Experiment: Phase 3b randomized, double-blind, placebo-controlled study to reduce incidence of pre-dialysis hyperkalemia with SZC
Design: species or system human
Settings: in vivo
Procedure: A Phase 3b, Multicenter, Prospective, Randomized, Double Blind, Placebocontrolled Study to Reduce Incidence of Pre-Dialysis Hyperkalemia with Sodium Zirconium Cyclosilicate (SZC) The study was carried out to evaluate the efficacy of Sodium Zirconium Cyclosilicate in the treatment of hyperkalemia in patients on hemodialysis. The study was designed to include approximately 180 patients with ESRD receiving maintenance hemodialysis treatments three times per week with an indication for treatment of hyperkalemia (FIG. 1). The study is a randomized, double-blind study with two treatment groups, SZC or placebo, and includes hemodialysis patients that have been on dialysis for a minimum of three months and receive treatment three times a week. Patients must have hemodialysis access consisting of an arteriovenous fistula, AV graft, or tunneled (permanent) catheter which is expected to remain in place for the entire duration of the study (FIG. 2).
The starting dose of SZC will be 5 g once daily on non-dialysis day and may be adjusted to a maximum of 15 g per non-dialysis day to maintain a pre-dialysis S-K between 4-5 mmol/L. SZC or placebo will be administered orally on non-dialysis days for a treatment period of eight weeks. Patients will be randomized (1:1) to double-blind treatment with either SZC or placebo, started at 5 g once daily on non-dialysis days, and titrated during a period of four weeks to achieve and maintain a pre-dialysis serum potassium between 4 and 5 mmol/L after the Long Inter-Dialytic Interval (LIDI). Maximum SZC dose is 15 g once daily on non-dialysis days. Treatment will be continued unchanged for an additional four week evaluation period to complete a total of 8 weeks. The primary benefit for patients randomized to SZC is expected to be the maintenance of normokalemia during the long interdialytic interval, potentially including the relief of associated signs and symptoms and an improved quality of life.
For inclusion in the study patients should fulfil the following criteria: 1. Provision of informed consent prior to any study specific procedures. 2. Female or male aged >18 years at screening Visit 1. For patients aged <20 years and enrolled in Japan, a written informed consent should be obtained from the patient and his or her legally acceptable representative. 3. Receiving hemodialysis (or hemodiafiltration) three times a week for treatment of endstage renal disease (ESRD) for at least three months before randomization. 4. […]
Patients should not enter the study if any of the following exclusion criteria are fulfilled: 1. […] Hemoglobin <9 g/dL on screening (as assessed on Visit 1). […]

Sodium Zirconium Cyclosilicate [SZC]
number of patients with adverse events: 40 | number of patients with serious adverse event: 7 | overall safety: no safety concerns | patients with pre-dialysis hypokalemia (serum K<3.5 mmol/L): five
